{"source": "PubChem BioAssay AID687040", "about": "(Broad Institute, 2013)", "note": "The source made the active and inactive calls.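 Rule for the calls: active = fitted curve hits 40% activity increase at a dose no higher than the top valid tested dose; inconclusive = flat curve at 30 to 70% activity, or poor fit; inactive = the rest.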", "data": [{"system": "Huh7 psiCHECK-miR122 Renilla luciferase reporter, 48 h", "test": "miR-122 inhibitors in reporter cells, dose response, cell-based, Huh7-psiCHECK-miR122, luminescence, dry powder (AID 687040)", "conditions": "not given", "values": [{"smiles": "COc1ccc(C)cc1NS(=O)(=O)c1ccc2c(c1)N(C)CCO2", "AC40": "2650 nM"}, {"smiles": "Cc1cc(C)c(C)c(S(=O)(=O)NC2CCCCC2)c1C", "AC40": "507 nM"}, {"smiles": "O=C(Nc1ccc2ccccc2c1)c1ccc(Cl)cc1Cl", "AC40": "> 35000 nM (inactive)"}, {"smiles": "Cc1cc(C)c(S(=O)(=O)NC2CC3CCC2C3)c(C)c1", "note": "(centres undefined)", "AC40": "792 nM"}, {"smiles": "CC1CCCCN1C(=O)c1cc2nc(-c3ccccc3)cc(-c3ccccc3)n2n1", "note": "(centres undefined)", "AC40": "925 nM"}, {"smiles": "Cc1cc(C)c(S(=O)(=O)NC(C)C)c(C)c1-n1cnnn1", "AC40": "1720 nM"}, {"smiles": "COc1ccc(S(=O)(=O)NCCN2CCOCC2)c2ccccc12", "AC40": "1600 nM"}, {"smiles": "Cc1cc(C(C)(C)C)cc(S(=O)(=O)NCCO)c1C", "AC40": "1260 nM"}, {"smiles": "COc1cc(C)c(C(C)C)cc1S(=O)(=O)n1cnc(C)c1", "AC40": "4600 nM"}, {"smiles": "Cc1ccc(C)c(S(=O)(=O)Nc2ccc3cn[nH]c3c2)c1", "AC40": "1540 nM"}, {"smiles": "CCCCNS(=O)(=O)c1ccc2nc(-c3cccnc3)cc(C(=O)NC(C)CC)c2c1", "note": "(centres undefined)", "AC40": "274 nM"}, {"smiles": "Cc1cc(S(=O)(=O)NC2CCCCC2)c(C)s1", "AC40": "2040 nM"}, {"smiles": "Cc1cc(Cl)c(Cl)cc1S(=O)(=O)NCCCn1ccnc1", "AC40": "1890 nM"}, {"smiles": "COc1ccc(S(=O)(=O)Nc2ccc(OC(F)F)cc2)c2cccnc12", "AC40": "1430 nM"}, {"smiles": "CN1C(=O)c2cccc3c(S(=O)(=O)NCCc4ccccc4)ccc1c23", "AC40": "300 nM"}, {"smiles": "Cc1ccc(S(=O)(=O)Nc2ccc3c4c(cccc24)CC3)c(C)c1", "AC40": "3660 nM"}, {"smiles": "Cc1ccc(NS(=O)(=O)c2cc(C(=O)NCc3ccccn3)ccc2Cl)cc1C", "AC40": "2270 nM"}, {"smiles": "O=C(Nc1ccc(N2CCOCC2)c(S(=O)(=O)Nc2cc(Cl)ccc2Cl)c1)c1cccnc1", "AC40": "761 nM"}, {"smiles": "CCOc1ccccc1N1CCN(C(=O)c2cccc(-c3ccc(O)cc3)c2)CC1", "AC40": "< 260 nM"}, {"smiles": "S=C(Nc1ccc(Cl)cc1Cl)NC1CCCCC1", "AC40": "4180 nM"}, {"smiles": "CCN(CC)C(=O)CN(c1cc2c(cc1OC)oc1ccccc12)S(=O)(=O)c1ccccc1", "AC40": "2290 nM"}, {"smiles": "COC(=O)c1cc(S(=O)(=O)Nc2cc(OC)cc(OC)c2)cn1C", "AC40": "3190 nM"}, {"smiles": "Nc1c(S(=O)(=O)c2cccs2)c2nc3ccccc3nc2n1Cc1ccccc1", "AC40": "1250 nM"}, {"smiles": "O=C(CN1CCOCC1)Nc1ccc(Br)cc1C(=O)c1ccccc1", "AC40": "1430 nM"}, {"smiles": "CCOc1cc(C)c(S(=O)(=O)NC2CCCCC2)cc1C", "AC40": "1240 nM"}, {"smiles": "O=S(=O)(c1ccc2c(c1)CCCN2)N1CCC[C@@H]2CCCC[C@H]21", "AC40": "6940 nM"}, {"smiles": "Cc1cccc(NS(=O)(=O)c2cc3c(cc2C)NC(=O)CO3)c1", "AC40": "2650 nM"}, {"smiles": "Cc1ccc(C(C)C)cc1S(=O)(=O)Nc1cccnc1", "AC40": "1790 nM"}, {"smiles": "Cc1ccc(C(=O)C2Oc3ccccc3C3CC(c4ccc(C)cc4)=NN23)cc1", "note": "(centres undefined)", "AC40": "831 nM"}, {"smiles": "CCOc1ccc(C)cc1S(=O)(=O)NC1CCCCC1", "AC40": "394 nM"}, {"smiles": "Cc1ccc(C)c(S(=O)(=O)Nc2ccc(-n3cnnn3)cc2)c1", "AC40": "271 nM"}, {"smiles": "COc1ccc(C(C)(C)C)cc1S(=O)(=O)NCC1CCCO1", "note": "(centres undefined)", "AC40": "456 nM"}, {"smiles": "COc1cccc(N2CCN(C(=O)c3oc4ccccc4c3NC(=O)CCc3cc(OC)no3)CC2)c1", "AC40": "2390 nM"}]}, {"system": "not listed separately", "test": "miR-122 inhibitors in reporter cells, dose response, cell-based, Huh7-psiCHECK-miR122, luminescence, dry powder (AID 687040)", "conditions": "Huh7 psiCHECK-miR122 Renilla luciferase reporter, 48 h; at 35 µM (top of the series)", "values": [{"smiles": "O=S(=O)(Nc1cccc2[nH]ncc12)c1ccc(F)c2ncccc12", "activity increase (miR-122 inhibition)": "6.99% (inactive)"}]}]}
